# US9833497B2, “Human originated EGF domain proteins and use of the same” (CHENGDU SOURCEBIO LIMITED-LIABILITY COMPANY, priority 2013, dated 2017)
# What was measured:
# Format in all cases: cell-based
# E. coli BL21 = assay: MIC against Gram-negative bacteria: E. coli BL21; conditions: for MIC / MIC against E. coli BL21 / MIC (μg/mL) E. coli BL21: E. coli BL21
# Procedure, shortened: (§1)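 Bacteria grown in LB at 37° C with shaking to McFarland 0.5, pelleted and resuspended in fresh LB, then seeded at 5×10^5 CFU/mL per well. Purified recombinant human EGF domain proteins were two-fold serially diluted in triplicate and plates shaken at 37° C, 175 rpm. MIC is the lowest protein concentration with no bacterial growth.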
# Aeromonas hydrophila = assay: MIC against Gram-negative bacteria: Aeromonas hydrophila
# Procedure, shortened: as §1
# E. coli DH5α = assay: Antibacterial activity: MIC and growth curve against E. coli DH5α in 96-well plate; conditions: minimal inhibitory concentration against E. coli DH5α; 96-well plate, 5×10^5 CFU/mL, 37° C., judged after 8 h
# Procedure, shortened: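 Log-phase bacteria (OD600 ~0.5) resuspended in LB at 5×10^5 CFU/mL, exposed to recombinant protein at 50, 25, 12.5 μg/mL final in triplicate, 37 °C shaking at 175 rpm. OD600 read every 30 min; MIC is lowest concentration showing no growth.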
# Pseudomonas aeruginosa = assay: MIC against Gram-negative bacteria: Pseudomonas aeruginosa
# Procedure, shortened: as §1
# Proteus vulgaris = assay: MIC against Gram-negative bacteria: Proteus vulgaris
# Procedure, shortened: as §1
# Proteus mirabilis = assay: MIC against Gram-negative bacteria: Proteus mirabilis
# Procedure, shortened: as §1
# Moraxella catarrhalis = assay: MIC against Gram-negative bacteria: Moraxella catarrhalis
# Procedure, shortened: as §1
# Klebsiella pneumonia = assay: MIC against Gram-negative bacteria: Klebsiella pneumonia
# Procedure, shortened: as §1
# Citrobacter diversus = assay: MIC against Gram-negative bacteria: Citrobacter diversus
# Procedure, shortened: as §1
# Serratia marcescens = assay: MIC against Gram-negative bacteria: Serratia marcescens
# Procedure, shortened: as §1
# Enterobacter cloacae = assay: MIC against Gram-negative bacteria: Enterobacter cloacae
# Procedure, shortened: as §1
# [1] = A. hydrophila, 10 h cultivation at 37° C.
# [2] = P. aeruginosa, 10 h cultivation at 37° C.
# [3] = P. vulgaris, 10 h cultivation at 37° C.
# [4] = P. mirabilis, 10 h cultivation at 37° C.
# [5] = M. catarrhalis, 10 h cultivation at 37° C.
# [6] = K. pneumonia, 10 h cultivation at 37° C.
# [7] = C. diversus, 10 h cultivation at 37° C.
# [8] = S. marcescens, 10 h cultivation at 37° C.
# [9] = E. cloacae, 10 h cultivation at 37° C.
# [10] = 96-well plate, 5×10^5 CFU/mL, 37° C., 10 h
# [11] = Aeromonas hydrophila, 96-well plate, 5×10^5 CFU/mL, 37° C., 10 h
# [12] = Pseudomonas aeruginosa, 96-well plate, 5×10^5 CFU/mL, 37° C., 10 h
# [13] = Proteus vulgaris, 96-well plate, 5×10^5 CFU/mL, 37° C., 10 h
# [14] = Proteus mirabilis, 96-well plate, 5×10^5 CFU/mL, 37° C., 10 h
# [15] = Moraxella catarrhalis, 96-well plate, 5×10^5 CFU/mL, 37° C., 10 h
# [16] = Klebsiella pneumonia, 96-well plate, 5×10^5 CFU/mL, 37° C., 10 h
# [17] = Citrobacter diversus, 96-well plate, 5×10^5 CFU/mL, 37° C., 10 h
# [18] = Serratia marcescens, 96-well plate, 5×10^5 CFU/mL, 37° C., 10 h
# [19] = Enterobacter cloacae, 96-well plate, 5×10^5 CFU/mL, 37° C., 10 h
# [20] = 10 h cultivation at 37° C., 5×10^5 CFU/mL, two-fold serial dilution
substance,measurement,setting,value
PRT1041 (VPLCAQECVHGRCVAPNQCQCVPGWRGDDCS; listed as Homo sapiens),MIC,E. coli BL21; 10 h cultivation at 37° C.,25 µg/mL
same,MIC,Aeromonas hydrophila; [1],50 µg/mL
same,MIC,E. coli DH5α,12.5 µg/mL
same,MIC,Pseudomonas aeruginosa; [2],50 µg/mL
same,MIC,Proteus vulgaris; [3],50 µg/mL
same,MIC,Proteus mirabilis; [4],25 µg/mL
same,MIC,Moraxella catarrhalis; [5],50 µg/mL
same,MIC,Klebsiella pneumonia; [6],25 µg/mL
same,MIC,Citrobacter diversus; [7],12.5 µg/mL
same,MIC,Serratia marcescens; [8],25 µg/mL
same,MIC,Enterobacter cloacae; [9],50 µg/mL
PRT945 (QLDECASNPCQHGATCSDFIGGYRCECVPGYQGVNCE; listed as Homo sapiens),MIC,E. coli BL21; 10 h cultivation at 37° C.,50 µg/mL
same,MIC,Aeromonas hydrophila; [1],50 µg/mL
same,MIC,E. coli DH5α,25 µg/mL
same,MIC,Pseudomonas aeruginosa; [2],25 µg/mL
same,MIC,Proteus vulgaris; [3],12.5 µg/mL
same,MIC,Proteus mirabilis; [4],50 µg/mL
same,MIC,Moraxella catarrhalis; [5],25 µg/mL
same,MIC,Klebsiella pneumonia; [6],12.5 µg/mL
same,MIC,Citrobacter diversus; [7],12.5 µg/mL
same,MIC,Serratia marcescens; [8],25 µg/mL
same,MIC,Enterobacter cloacae; [9],25 µg/mL
PRT1219 (DHDSCVHGPCQNGGSCLRRLAVSSVLKSRESLPVIIVANEPLQPFLCKCLPGYAGSWCE; listed as Homo sapiens),MIC against E. coli BL21,E. coli BL21; [10],50 µg/mL
same,MIC against A. hydrophila,Aeromonas hydrophila; [11],12.5 µg/mL
same,MIC,E. coli DH5α,12.5 µg/mL
same,MIC against P. aeruginosa,Pseudomonas aeruginosa; [12],25 µg/mL
same,MIC against P. vulgaris,Proteus vulgaris; [13],25 µg/mL
same,MIC against P. mirabilis,Proteus mirabilis; [14],50 µg/mL
same,MIC against M. catarrhalis,Moraxella catarrhalis; [15],25 µg/mL
same,MIC against K. pneumonia,Klebsiella pneumonia; [16],12.5 µg/mL
same,MIC against C. diversus,Citrobacter diversus; [17],25 µg/mL
same,MIC against S. marcescens,Serratia marcescens; [18],25 µg/mL
same,MIC against E. cloacae,Enterobacter cloacae; [19],50 µg/mL
PRT1228 (CPPCPKYASCHNSTHCTCEDGFRARSGRTYFHDSSEKCE; listed as Homo sapiens),MIC against E. coli BL21,E. coli BL21; [10],25 µg/mL
same,MIC against A. hydrophila,Aeromonas hydrophila; [11],25 µg/mL
same,MIC,E. coli DH5α,12.5 µg/mL
same,MIC against P. aeruginosa,Pseudomonas aeruginosa; [12],50 µg/mL
same,MIC against P. vulgaris,Proteus vulgaris; [13],25 µg/mL
same,MIC against P. mirabilis,Proteus mirabilis; [14],12.5 µg/mL
same,MIC against M. catarrhalis,Moraxella catarrhalis; [15],25 µg/mL
same,MIC against K. pneumonia,Klebsiella pneumonia; [16],25 µg/mL
same,MIC against C. diversus,Citrobacter diversus; [17],50 µg/mL
same,MIC against S. marcescens,Serratia marcescens; [18],50 µg/mL
same,MIC against E. cloacae,Enterobacter cloacae; [19],12.5 µg/mL
PRT1142 (DVNKCKISPCLDEENCVYRTDGYNCLCAPGYTGINCE; listed as Homo sapiens),MIC E. coli BL21,E. coli BL21; [20],50 µg/mL
same,MIC A. hydrophila,Aeromonas hydrophila; [20],25 µg/mL
same,MIC,E. coli DH5α,25 µg/mL
same,MIC P. aeruginosa,Pseudomonas aeruginosa; [20],25 µg/mL
same,MIC P. vulgaris,Proteus vulgaris; [20],25 µg/mL
same,MIC P. mirabilis,Proteus mirabilis; [20],12.5 µg/mL
same,MIC M. catarrhalis,Moraxella catarrhalis; [20],25 µg/mL
same,MIC K. pneumonia,Klebsiella pneumonia; [20],12.5 µg/mL
same,MIC C. diversus,Citrobacter diversus; [20],50 µg/mL
same,MIC S. marcescens,Serratia marcescens; [20],50 µg/mL
same,MIC E. cloacae,Enterobacter cloacae; [20],25 µg/mL
PRT58 (PCALGEGPACAHCAPDNSTRCGSCNPGYVLAQGLCR; listed as Homo sapiens),MIC (μg/mL) E. coli BL21,E. coli BL21; [10],25 µg/mL
same,MIC (μg/mL) A. hydrophila,Aeromonas hydrophila; [11],12.5 µg/mL
same,MIC,E. coli DH5α,12.5 µg/mL
same,MIC (μg/mL) P. aeruginosa,Pseudomonas aeruginosa; [12],12.5 µg/mL
same,MIC (μg/mL) P. vulgaris,Proteus vulgaris; [13],25 µg/mL
same,MIC (μg/mL) P. mirabilis,Proteus mirabilis; [14],100 µg/mL
same,MIC (μg/mL) M. catarrhalis,Moraxella catarrhalis; [15],25 µg/mL
same,MIC (μg/mL) K. pneumonia,Klebsiella pneumonia; [16],12.5 µg/mL
same,MIC (μg/mL) C. diversus,Citrobacter diversus; [17],12.5 µg/mL
same,MIC (μg/mL) S. marcescens,Serratia marcescens; [18],50 µg/mL
same,MIC (μg/mL) E. cloacae,Enterobacter cloacae; [19],12.5 µg/mL
PRT190 (ECPLNYCRNGGTCVVEKNGPMCRCRQGWKGNRC; listed as Homo sapiens),MIC (μg/mL) E. coli BL21,"E. coli BL21; 10 h cultivation at 37° C., 5×10^5 CFU/mL",25 µg/mL
same,MIC (μg/mL) A. hydrophila,"Aeromonas hydrophila; A. hydrophila, 10 h cultivation at 37° C., 5×10^5 CFU/mL",25 µg/mL
same,MIC,E. coli DH5α,12.5 µg/mL
same,MIC (μg/mL) P. aeruginosa,"Pseudomonas aeruginosa; P. aeruginosa, 10 h cultivation at 37° C., 5×10^5 CFU/mL",50 µg/mL
same,MIC (μg/mL) P. vulgaris,"Proteus vulgaris; P. vulgaris, 10 h cultivation at 37° C., 5×10^5 CFU/mL",12.5 µg/mL
same,MIC (μg/mL) P. mirabilis,"Proteus mirabilis; P. mirabilis, 10 h cultivation at 37° C., 5×10^5 CFU/mL",12.5 µg/mL
same,MIC (μg/mL) M. catarrhalis,"Moraxella catarrhalis; M. catarrhalis, 10 h cultivation at 37° C., 5×10^5 CFU/mL",12.5 µg/mL
same,MIC (μg/mL) K. pneumonia,"Klebsiella pneumonia; K. pneumonia, 10 h cultivation at 37° C., 5×10^5 CFU/mL",25 µg/mL
same,MIC (μg/mL) C. diversus,"Citrobacter diversus; C. diversus, 10 h cultivation at 37° C., 5×10^5 CFU/mL",12.5 µg/mL
same,MIC (μg/mL) S. marcescens,"Serratia marcescens; S. marcescens, 10 h cultivation at 37° C., 5×10^5 CFU/mL",12.5 µg/mL
same,MIC (μg/mL) E. cloacae,"Enterobacter cloacae; E. cloacae, 10 h cultivation at 37° C., 5×10^5 CFU/mL",12.5 µg/mL
